From patent US11180462B2, “Microbiocidal oxadiazole derivatives” (SYNGENTA PARTICIPATIONS AG, priority 2015, dated 2021)

Key:
[1] = tested on: Puccinia recondita f. Sp. Tritici; test: Fungicidal activity against Puccinia recondita f. sp. tritici / wheat / leaf disc curative (brown rust); format: in vivo; settings: foliar, 24 h, 200 ppm in the applied formulation, wheat leaf segments, curative (applied 1 day after inoculation), compared to untreated control leaf disks, read-out: disease control
Outline: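 Curative test on wheat leaf segments (cv. Kanzler) on agar, inoculated with spore suspension and held dark at 19° C, 75% RH; formulated compound in water applied 1 day after inoculation. Incubated at 19° C, 75% RH, 12 h light/12 h dark; percent disease control versus untreated scored 6 to 8 days after application.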

[2] = tested on: Glomerella lagenarium (Colletotrichum lagenarium); test: Fungicidal activity against Glomerella lagenarium (Colletotrichum lagenarium) liquid culture / cucumber / preventative (anthracnose); format: cell-based; settings: Colletotrichum orbiculare; 20 ppm in the applied formulation; liquid culture (PDB), growth inhibition measured photometrically after 3 to 4 days; compared to untreated control; read-out: disease control
Outline: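 Percent activity against the untreated check was derived from photometric growth measurements made 2 to 7 days after conidia in potato dextrose broth were combined with compound at 20 ppm. Cultures were kept dark at 24 °C and 96% humidity.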

Phakopsora Pachyrhizi = test: Fungicidal activity against Phakopsora pachyrhizi / soybean / leaf disc preventative (Asian soybean rust); format: in vivo; settings: foliar, 200 ppm in the applied formulation, soybean leaf disks, compared to untreated control leaf disks, read-out: disease control
Outline: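 Scored 12 to 14 days post-application as percent control relative to untreated check discs, rust spores were sprayed under the disc one day after compound treatment. Incubation: 20°C, 75% rh, first 24–36 h in darkness, then 12 h daily light; discs kept on water agar.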

[3] = tested on: Puccinia recondita f. Sp. Tritici; test: Fungicidal activity against Puccinia recondita f. sp. tritici / wheat / leaf disc preventative (brown rust); format: in vivo; settings: foliar, 200 ppm in the applied formulation, wheat leaf segments, preventative, compared to untreated control leaf disks, read-out: disease control
Outline: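 Percent disease control relative to untreated check segments is scored once disease develops, 7 to 9 days after application. Wheat cv. Kanzler segments receive compound spray (200 ppm in formulation) one day before spore inoculation, then sit at 19° C. and 75% rh under 12 h light/12 h dark.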

COCCN(Cc1ccc(-c2noc(C(F)(F)F)n2)cc1)C(=O)C1CCC1 [Compound 1.337, N-(2-methoxyethyl)-N-[[4-[5-(trifluoromethyl)-1,2,4-oxadiazol-3-yl]phenyl]methyl]-cyclobutane-carboxamide]
≥ 80%: pest or weed control at 200 ppm [1] | inhibition of growth at 20 ppm [2] | pest or weed control at 200 ppm (Phakopsora Pachyrhizi) | pest or weed control at 200 ppm [3]

CCOCC(=O)N(CCOC)Cc1ccc(-c2noc(C(F)(F)F)n2)cc1 [Compound 1.339, 2-ethoxy-N-(2-methoxyethyl)-N-[[4-[5-(trifluoromethyl)-1,2,4-oxadiazol-3-yl]phenyl]methyl]-acetamide]
≥ 80%: pest or weed control at 200 ppm [1] | inhibition of growth at 20 ppm [2] | pest or weed control at 200 ppm (Phakopsora Pachyrhizi) | pest or weed control at 200 ppm [3]

COCCN(Cc1ccc(-c2noc(C(F)(F)F)n2)cc1)C(=O)C1CC1C (stereo not drawn) [Compound 1.341, N-(2-methoxyethyl)-2-methyl-N-[[4-[5-(trifluoromethyl)-1,2,4-oxadiazol-3-yl]phenyl]methyl]-cyclopropane-carboxamide]
≥ 80%: pest or weed control at 200 ppm [1] | inhibition of growth at 20 ppm [2] | pest or weed control at 200 ppm (Phakopsora Pachyrhizi) | pest or weed control at 200 ppm [3]

COCCN(Cc1ccc(-c2noc(C(F)(F)F)n2)cc1)C(=O)C1(C)CC1 [Compound 1.344, N-(2-methoxyethyl)-1-methyl-N-[[4-[5-(trifluoromethyl)-1,2,4-oxadiazol-3-yl]phenyl]methyl]-cyclopropane-carboxamide]
≥ 80%: pest or weed control at 200 ppm [1] | inhibition of growth at 20 ppm [2] | pest or weed control at 200 ppm (Phakopsora Pachyrhizi) | pest or weed control at 200 ppm [3]

CCC(=O)N(CCOC)Cc1ccc(-c2noc(C(F)(F)F)n2)cc1 [Compound 1.345, N-(2-methoxyethyl)-N-[[4-[5-(trifluoromethyl)-1,2,4-oxadiazol-3-yl]phenyl]methyl]-propanamide]
≥ 80%: pest or weed control at 200 ppm [1] | inhibition of growth at 20 ppm [2] | pest or weed control at 200 ppm (Phakopsora Pachyrhizi) | pest or weed control at 200 ppm [3]

C=C(C)C(=O)N(CCOC)Cc1ccc(-c2noc(C(F)(F)F)n2)cc1 [Compound 1.346, N-(2-methoxyethyl)-2-methyl-N-[[4-[5-(trifluoromethyl)-1,2,4-oxadiazol-3-yl]phenyl]methyl]prop-2-enamide]
≥ 80%: pest or weed control at 200 ppm [1] | inhibition of growth at 20 ppm [2] | pest or weed control at 200 ppm (Phakopsora Pachyrhizi) | pest or weed control at 200 ppm [3]

CCC(C)C(=O)N(CCOC)Cc1ccc(-c2noc(C(F)(F)F)n2)cc1 (stereo not drawn) [Compound 1.350, N-(2-methoxyethyl)-2-methyl-N-[[4-[5-(trifluoromethyl)-1,2,4-oxadiazol-3-yl]phenyl]methyl]-butanamide]
≥ 80%: pest or weed control at 200 ppm [1] | inhibition of growth at 20 ppm [2] | pest or weed control at 200 ppm (Phakopsora Pachyrhizi) | pest or weed control at 200 ppm [3]

COCCN(Cc1ccc(-c2noc(C(F)(F)F)n2)cc1)C(=O)C1(C)COC1 [Compound 1.351, N-(2-methoxyethyl)-3-methyl-N-[[4-[5-(trifluoromethyl)-1,2,4-oxadiazol-3-yl]phenyl]methyl]-oxetane-3-carboxamide]
≥ 80%: pest or weed control at 200 ppm [1] | inhibition of growth at 20 ppm [2] | pest or weed control at 200 ppm (Phakopsora Pachyrhizi) | pest or weed control at 200 ppm [3]

COCCN(Cc1ccc(-c2noc(C(F)(F)F)n2)cc1)C(=O)C1CCCO1 (stereo not drawn) [Compound 1.355, N-(2-methoxyethyl)-N-[[4-[5-(trifluoromethyl)-1,2,4-oxadiazol-3-yl]phenyl]methyl]-tetrahydrofuran-2-carboxamide]
≥ 80%: pest or weed control at 200 ppm [1] | inhibition of growth at 20 ppm [2] | pest or weed control at 200 ppm (Phakopsora Pachyrhizi) | pest or weed control at 200 ppm [3]

COCCN(Cc1ccc(-c2noc(C(F)(F)F)n2)cc1)C(=O)C1(C#N)CC1 [Compound 1.356, 1-cyano-N-(2-methoxyethyl)-N-[[4-[5-(trifluoromethyl)-1,2,4-oxadiazol-3-yl]phenyl]methyl]-cyclopropane-carboxamide]
≥ 80%: pest or weed control at 200 ppm [1] | inhibition of growth at 20 ppm [2] | pest or weed control at 200 ppm (Phakopsora Pachyrhizi) | pest or weed control at 200 ppm [3]

COCCN(Cc1ccc(-c2noc(C(F)(F)F)n2)cc1)C(=O)C1CC1F (stereo not drawn) [Compound 1.358, 2-fluoro-N-(2-methoxyethyl)-N-[[4-[5-(trifIuoromethyl)-1,2,4-oxadiazol-3-yl]phenyl]methyl]-cyclopropane-carboxamide]
≥ 80%: pest or weed control at 200 ppm [1] | inhibition of growth at 20 ppm [2] | pest or weed control at 200 ppm (Phakopsora Pachyrhizi) | pest or weed control at 200 ppm [3]

COCCN(Cc1ccc(-c2noc(C(F)(F)F)n2)cc1)C(=O)C(C)OC (stereo not drawn) [Compound 1.359, 2-methoxy-N-(2-methoxyethyl)-N-[[4-[5-(trifluoromethyl)-1,2,4-oxadiazol-3-yl]phenyl]methyl]-propanamide]
≥ 80%: pest or weed control at 200 ppm [1] | inhibition of growth at 20 ppm [2] | pest or weed control at 200 ppm (Phakopsora Pachyrhizi) | pest or weed control at 200 ppm [3]

COCCN(Cc1ccc(-c2noc(C(F)(F)F)n2)cc1)C(=O)C1OCCO1 [Compound 1.360, N-(2-methoxyethyl)-N-[[4-[5-(trifluoromethyl)-1,2,4-oxadiazol-3-yl]phenyl]methyl]-1,3-dioxolane-2-carboxamide]
≥ 80%: pest or weed control at 200 ppm [1] | inhibition of growth at 20 ppm [2] | pest or weed control at 200 ppm (Phakopsora Pachyrhizi) | pest or weed control at 200 ppm [3]

COCCN(Cc1ccc(-c2noc(C(F)(F)F)n2)cc1)C(=O)CC(F)(F)F [Compound 1.361, 3,3,3-trifluoro-N-(2-methoxyethyl)-N-[[4-[5-(trifluoromethyl)-1,2,4-oxadiazol-3-yl]phenyl]methyl]-propanamide]
≥ 80%: pest or weed control at 200 ppm [1] | inhibition of growth at 20 ppm [2] | pest or weed control at 200 ppm (Phakopsora Pachyrhizi) | pest or weed control at 200 ppm [3]

COCCN(Cc1ccc(-c2noc(C(F)(F)F)n2)cc1)C(=O)C1CC1 [Compound 1.363, N-(2-methoxyethyl)-N-[[4-[5-(trifluoromethyl)-1,2,4-oxadiazol-3-yl]phenyl]methyl]-cyclopropane-carboxamide]
≥ 80%: pest or weed control at 200 ppm [1] | inhibition of growth at 20 ppm [2] | pest or weed control at 200 ppm (Phakopsora Pachyrhizi) | pest or weed control at 200 ppm [3]

COCCCC(=O)N(CCOC)Cc1ccc(-c2noc(C(F)(F)F)n2)cc1 [Compound 1.365, 4-methoxy-N-(2-methoxyethyl)-N-[[4-[5-(trifluoromethyl)-1,2,4-oxadiazol-3-yl]phenyl]methyl]-butanamide]
≥ 80%: pest or weed control at 200 ppm [1] | inhibition of growth at 20 ppm [2] | pest or weed control at 200 ppm (Phakopsora Pachyrhizi) | pest or weed control at 200 ppm [3]

CCC(C)N(Cc1ccc(-c2noc(C(F)(F)F)n2)cc1)C(=O)C1CCCCO1 (stereo not drawn) [Compound 1.368, N-sec-butyl-N-[[4-[5-(trifluoromethyl)-1,2,4-oxadiazol-3-yl]phenyl]methyl]-tetrahydropyran-2-carboxamide]
≥ 80%: pest or weed control at 200 ppm [1] | inhibition of growth at 20 ppm [2] | pest or weed control at 200 ppm (Phakopsora Pachyrhizi) | pest or weed control at 200 ppm [3]

CCC(C)N(Cc1ccc(-c2noc(C(F)(F)F)n2)cc1)C(=O)C(C)C (stereo not drawn) [Compound 1.369, 2-methyl-N-sec-butyl-N-[[4-[5-(trifluoromethyl)-1,2,4-oxadiazol-3-yl]phenyl]methyl]-propanamide]
≥ 80%: pest or weed control at 200 ppm [1] | inhibition of growth at 20 ppm [2] | pest or weed control at 200 ppm (Phakopsora Pachyrhizi) | pest or weed control at 200 ppm [3]
